Measurements reported in US10457639B2, “Fluorescent regulators of RASSF1A expression and human cancer cell proliferation” (GEORGETOWN UNIVERSITY, priority 2008, dated 2019).
Read-outs that look alike come from different tables or passages of the source.

Experiments:
PC3 cells = assay: Cell growth assay, trypan blue dye exclusion count; type: cell-based
Description: Cell Line and Cell Growth Assay. Human prostate cancer cell line PC-3 was procured from the American Type Cell Culture Collection (Manassas, Va.). Cells were grown in IMEM without phenol red (Invitrogen, Carlsbad, Calif.) with 10% fetal bovine serum, 2 mM glutamine, 100 U/mL penicillin G sodium, and 100 μg/mL streptomycin sulfate (Sigma, St. Louis, Mo.) in the presence of 5% CO2 at 37° C. For the cell growth experiment, PC-3 cells were seeded in 6-well plates in triplicate with an initial density of 2×10^3 cells per well. Twenty-four hours after seeding, the attached cells were treated with vehicle (DMSO) or 1, 5, 15, 30 and 60 μM compound. After another twenty-four hours, the cells were washed with 1×PBS, trypsinized and re-suspended in complete growth medium. Trypan blue (0.4%) was added to the cell suspension and both live and dead cells were counted using a hemocytometer.
Compounds 6-10 were screened for growth inhibition in PC-3 human prostate cancer cells using previously reported methods (Table 1; Sinha et al. The Prostate. 2006, 66, 1257-1265). […] This was unexpected, since the methyl moiety of mahanine is in the 3-position. Compound 9, with its GI50 value near that of the compound 6 series (compounds 6, 6a, 8) and a deprotected hydroxyl group in the 2-position, implies that whatever hindrance is imposed by a methyl in the 3-position can be partially overcome if steric bulk at the 2-position is reduced. Indeed, looking at the structure of mahanine, the restraint of the ether cycle may provide enough reduction of apparent bulk at the 2-position to moderate its methyl in the 3-position. Additionally, the ether ring system puts the equivalent of a methyl group in the 1-position, which could also be aiding in the low μM activity of mahanine, if the relatively lower values for the compound 6 series are any indication. Moreover, analyzing the structure of compound 10 based on the same criteria, the double-bonded carbon of the ether cycle in the 3-position along with bulk off the 2-position might explain its lesser growth inhibition when compared to mahanine, while the methyl in the 1-position still gives it better activity than compounds 7 and 7a.

PC-3 cells = assay: BrdU labeling, DNA synthesis (Cell Proliferation ELISA BrdU); type: cell-based, human; details: 5 μM compound, 24 hours
Description: PC-3 cells were plated in 96-well plates and treated with 5 μM of compound. After 24 hours, the cells were assayed for BrdU labeling using the Cell Proliferation ELISA BrdU kit from Roche; background BrdU incorporation levels (absent anti-BrdU-peroxidase solution) were subtracted and values were normalized to those of control untreated cells.
BrdU Labeling. For the BrdU experiment, PC-3 cells were seeded in 96-well plates at a density of 2×10^3 cells/well, treated with 5 μM of compound for 24 hr and assayed BrdU using the Cell Proliferation ELISA BrdU (chemiluminescence) (Roche Diagnostics, IN) kit according to the manufacturer's protocol. Briefly, 10 μL of 100 μM BrdU labeling solution was added to the cultured cells and were incubated for 1 hr at 37° C., the labeling solution was removed and the FixDenat solution provided with the kit was added for 30 min and incubated at room temperature. Cells were then incubated with anti-BrdU conjugated to peroxidase (1:1500) for 60 min. Finally, the plates were washed and 100 μL of substrate solution was added to each well, and the light emission was measured using a microplate luminometer (Harta Instruments, Inc., Gaithersburg, Md.).
To assess the levels of DNA synthesis within cells treated with mahanine compared to those treated with compounds 6-10, cultured cells were treated according to standard procedure with 5-bromo-2-deoxy-uridine (BrdU) after 24 hours of treatment (FIG. 2).

RASSF1A = assay: RT-PCR of RASSF1A mRNA in treated PC-3 cells; type: cell-based, human
Description: (§1) Representative photograph of an experiment repeated thrice. PC-3 cells were treated 24 hours with either 15 μM for compounds 6, 7, 7a, 8, 9, 10 or 5 μM for compound KED-4-69 (compound 6a) before RNA extraction and RT-PCR amplification.
(§2) Reverse Transcriptase-polymerase Chain Reaction (RT-PCR). From PC-3 cells incubated 24 hours with either 15 μM of compound 6, 7, 7a, 8, 9, 10 or 5 μM of KED-4-69 (compound 6a), RNA was extracted with TRIzol solution (Invitrogen, Carlsbad, Calif.) and genes of interest were amplified using 500 ng of total RNA reverse-transcribed to cDNA using a Superscript II kit (Invitrogen) with random hexamers. Human-specific primers were designed using the Primer Quest program and purchased from Integrated DNA Technologies, Inc. (Coralville, Iowa). Their sequences and product band sizes are: cyclin D1 forward primer 5′-[…]-3′ (SEQ ID NO:1), cyclin D1 reverse primer 5′-[…]-3′ (SEQ ID NO:2) (475 bp) and GAPDH forward primer: 5′-CCA […]-3′ (SEQ ID NO:3), GAPDH reverse primer: 5′-TCTAGACGGCAG GTCAGGTCCACC-3′ (SEQ ID NO:4) (598 bp). PCRs were initiated at 94° C. for 2 min, followed by 28 cycles of 94° C. for 1 min, 1 min annealing temperature, 72° C. for 1 min, and final extension at 72° C. for 5 min. The annealing temperature for cyclin D1 and GAPDH was 60° C. Primers and PCR conditions for RASSF1A are used as described by Rong et al. (Oncogene. 2004, 23, 8216-8230). After amplification, PCR products were separated on 1.5% agarose gels and visualized by ethidium bromide fluorescence using the Fuji LAS-1000 Imager. Images were captured and imported to Adobe Photoshop. Band intensities were quantified by using ImageJ software (NIH, Bethesda, Md.).
(§3) It has been reported that mRNA levels of RASSF1A correlate to its protein expression levels (Rong et al. Oncogene, 2004, 23: 8216-8230). To investigate the effects of the synthetic compounds on RASSF1A and cyclin D1 expression, levels of the respective mRNAs in treated cells compared to control were analyzed (FIG. 3). […] Because overexpression of cyclin D1 is associated with tumorigenicity and proliferation in a variety of tumors, including prostate cancers, this downregulation provides a cancer treatment method (Chen, Y. et al. Oncogene. 1998, 16, 1913-1920; Musgrove, E. A. et al. Proc. Natl. Acad. Sci. USA. 1994, 91, 8022-8026).

cyclin D1 = assay: RT-PCR of cyclin D1 mRNA in treated PC-3 cells; type: cell-based, human
Description: as §1, §2, §3

[1] = test system: DNA methyltransferase (DNMT); assay: DNA methyltransferase activity assay (EpiQuik kit, nuclear extracts of treated PC-3 cells); type: cell-based, human; details: 72 hours
Description: Black bars: PC-3 cells were treated 72 hours with either mahanine or compound 6a at 5 μM or compound 6, 7, 7a, 8, or 9 at 15 μM and then assayed for DNMT activity using the DNMT activity kit from Epigentek. Data are mean of three independent experiments ±SEM. Grey bars: Densitometry from RT-PCR blot where the amount of RASSF1A mRNA re-expressed by mahanine treatment is normalized to 100%.
DNA methyltransferase activity assay. PC-3 cells were plated in complete growth media, treated with either mahanine or compound 6a at 2 μM or compound 6, 7, 7a, 8, 9, 10 at 15 μM for 3 days and then harvested. Nuclear extracts were prepared according to manufacturer's protocol (Nuclear extraction kit, Epigentek). DNMT activity was measured using an EpiQuik DNA methyltransferase activity assay kit (Epigentek). Results were expressed as percent DNMT activity compared to the DMSO control as 100%.
The levels of DNMT activity in treated versus untreated prostate cancer cells were measured using a DNMT assay kit from Epigentek. […] These reduced DNMT activities correlate with the pattern of RASSF1A induction described above (FIG. 7, grey bars). The data imply that inhibition of DNMT prevents hypermethylation of the RASSF1A promoter region and consequently restores RASSF1A.

[2] = Homo sapiens, PC-3, concentration for 50% growth inhibition in PC3 cells, 24 hours of treatment, mean ± SEM of three observations, read-out: GI50
[3] = mahanine, concentration not given

Compound	GI50 (PC3 cells; [2]) [µM]	DNA synthetic ability (BrdU labeling) (PC-3 cells)	RASSF1A mRNA level versus control (RASSF1A; 15 μM, 24 hours)	cyclin D1 mRNA level versus control (cyclin D1; 15 μM, 24 hours)	DNMT activity versus DMSO control ([1]; 15 μM)	other results
COc1ccc2c(c1)[nH]c1c(C)c(OCc3ccccc3)ccc12 [Compound 6, 2-(Benzyloxy)-7-methoxy-1-methyl-9H-carbazole]	17.6 ± 2.7	decrease in DNA synthetic ability	significant increase in RASSF1A	corresponding decrease in cyclin D1	Significant inhibition of DNMT activity	–
COc1ccc2c(c1)[nH]c1cc(OCc3ccccc3)c(C)cc12 [Compound 7, 2-(benzyloxy)-7-methoxy-3-methyl-9H-carbazole]	48.9 ± 1.1	–	no change in expression levels from control	no change in expression levels from control	–	–
COc1ccc2c(c1)[nH]c1cc(OS(=O)(=O)c3cccc4c(N(C)C)cccc34)c(C)cc12 [Compound 7a, 7-Methoxy-3-methyl-9H-carbazol-2-yl 5-(dimethylamino)naphthalene-1-sulfonate]	22.9 ± 4.5	–	no change in expression levels from control	no change in expression levels from control	–	–
COc1ccc2c(c1)[nH]c1c(C)c(O)ccc12 [Compound 8, 7-Methoxy-1-methyl-9H-carbazol-2-ol]	–	no change in the DNA synthetic ability	–	–	slight decrease in DNMT activity	GI50 (PC3 cells; Homo sapiens, PC-3, 24 h): 18.7 ± 1.8 µM
COc1ccc2c(c1)[nH]c1cc(O)c(C)cc12 [Compound 9, 7-Methoxy-3-methyl-9H-carbazol-2-ol]	15.3 ± 2.8	decrease in DNA synthetic ability	–	–	slight decrease in DNMT activity	–
mahanine [reference compound]	–	decrease in DNA synthetic ability	–	–	–	doses at which cytotoxic (PC3 cells; PC-3 cells): above 5 μM; GI50 (PC3 cells; concentration for 50% growth inhibition in PC3 cells, 24 hours of treatment, mean ± SEM of three observations, read-out: GI50): 2.5 ± 0.18 µM; RASSF1A mRNA level versus control (RASSF1A; [3]): significant increase in RASSF1A; cyclin D1 mRNA level versus control (cyclin D1; [3]): corresponding decrease in cyclin D1; DNMT activity versus DMSO control ([1]; 5 μM (FIG. 7 legend; method says 2 μM)): Significant inhibition of DNMT activity
